The values that follow come from ChEMBL document CHEMBL1140011, “Discovery of cyclopentane- and cyclohexane-trans-1,3-diamines as potent melanin-concentrating hormone receptor 1 antagonists” (Bioorg Med Chem Lett, 2007).

The target in series [1] is T1, Melanin-concentrating hormone receptor 1 (Homo sapiens, UniProt Q99705). The experiment in a line: Displacement of [125I]MCH from human MCHR1 expressed in HEK293 cells. Format: cell-based.
Series [2] is described as follows: Metabolic stability assessed as intrinsic clearance in human liver microsomes. Type of series: ADME, Microsome. A general note: Liver microsomes are a subcellular fraction often used to study metabolism.
For series [3], the target named is T1, Melanin-concentrating hormone receptor 1. The experiment in a line: Antagonist activity at human MCHR1 expressed in HEK293 cells assessed as [35S]GTP-gamma-S accumulation. Type of series: functional, cell-based.
A short description of series [4]: Ratio of Cmax in brain to plasma in C57BL/6J mouse at 20 umol/kg, iv and 20 umol/kg, po. Type of series: ADME, organism-based. To be noted: read-out: BPR.
Series [5] can be described thus: Half life in C57BL/6J mouse plasma at 20 umol/kg, iv and 20 umol/kg, po. Type of series: ADME, organism-based.
The nature of series [6]: Cmax in C57BL/6J mouse plasma at 20 umol/kg, iv and 20 umol/kg, po. Format: ADME, organism-based.
Series [7] in a line: Fraction unbound in C57BL/6J mouse plasma. Format: ADME, cell-free.
Series [8] is described as follows: Tmax in C57BL/6J mouse brain at 20 umol/kg, iv and 20 umol/kg, po. Type of series: ADME, organism-based.
Series [9] is described as follows: Volume of distribution at steady state in C57BL/6J mouse at 20 umol/kg, iv and 20 umol/kg, po. To be noted: in vivo, read-out: Vdss. Format: ADME, organism-based.
In the next series the test system is Mus musculus. As to the kind of experiment: Cmax in C57BL/6J mouse brain at 20 umol/kg, iv and 20 umol/kg, po. To be noted: in vivo. Format: ADME, organism-based.
The nature of series [10]: Tmax in C57BL/6J mouse plasma at 20 umol/kg, iv and 20 umol/kg, po. Format: ADME, organism-based.
Series [11] in a line: Oral bioavailability in C57BL/6J mouse at 20 umol/kg. To be noted: in vivo. Type of series: ADME, organism-based.
Series [12] can be described thus: Clearance in C57BL/6J mouse at 20 umol/kg, iv and 20 umol/kg, po. Type of series: ADME, organism-based. Conditions: in vivo.

T1 sequence (Q99705 whole entry): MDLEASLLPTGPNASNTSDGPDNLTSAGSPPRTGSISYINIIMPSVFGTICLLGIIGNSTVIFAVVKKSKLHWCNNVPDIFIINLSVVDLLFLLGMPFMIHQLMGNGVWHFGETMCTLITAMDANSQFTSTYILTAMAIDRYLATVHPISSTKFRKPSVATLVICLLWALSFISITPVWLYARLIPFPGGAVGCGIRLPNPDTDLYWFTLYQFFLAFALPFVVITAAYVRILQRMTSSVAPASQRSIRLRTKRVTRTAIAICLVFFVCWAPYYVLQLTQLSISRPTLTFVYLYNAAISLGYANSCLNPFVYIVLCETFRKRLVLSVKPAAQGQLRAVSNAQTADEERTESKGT

With `COc1ccc2c(C)cc(N[C@H]3CC[C@H](NCc4cn(C)c5cc(C#N)ccc45)C3)nc2c1`, the IC50 in series [1] is 33 nM; in [3] it was 118 nM. The microsomal CLint in [2] was less than 12 µL/min/mg. In the same order, the values of `COc1cccc2nc(N[C@H]3CCC[C@H](NCc4ccsc4)C3)ccc12` are 54 nM, 42 nM and 38 µL/min/mg. In the same order, the values of `COc1ccc2c(C)cc(N[C@H]3CC[C@H](NCc4cn(C)c5c(C#N)cccc45)C3)nc2c1` are 20 nM, 127 nM and less than 12 µL/min/mg. On to `COc1ccc2nc(N[C@H]3CCC[C@H](NCc4ccsc4)C3)c(C)cc2c1`, for which the IC50 in [1] is 1390 nM. For `COc1cc(N[C@H]2CCC[C@H](NCc3ccsc3)C2)nc2ccccc12`, the IC50 was found to be 9 nM in [1] and 8 nM in series [3]. In turn, `COc1ccc2c(C)cc(N[C@H]3CCC[C@H](NCc4cn(C(=O)N(C)C)c5ccc(Cl)cc45)C3)nc2c1` returned a half-maximal inhibitory concentration (IC50) in series [1] of 58 nM. For the same compound, the microsomal CLint in series [2] was 52 µL/min/mg. In turn, `COc1ccc2c(C)cc(N[C@H]3CCC[C@H](NCc4ccc5nsnc5c4)C3)nc2c1` returned an IC50 in series [1] of 16 nM. The microsomal CLint in [2] was 227 µL/min/mg. Compound `COc1ccc2nc(NCCNCc3ccsc3)cc(C)c2c1` yielded an IC50 in [1] of 3590 nM. On the same count and under the same terms, the value for `COc1ccc2c(C)cc(N[C@H]3CCC[C@H](NCc4cnccn4)C3)nc2c1` was 89 nM. As for `COc1ccc2c(C)cc(N[C@H]3CCC[C@H](NCc4ccc(Cl)c(Cl)c4)C3)nc2c1`, the IC50 in [1] was determined as 13 nM. Further, the microsomal CLint in series [2] turned out to be 59 µL/min/mg. The matching figures for `COc1ccc2c(C)cc(N[C@H]3CCC[C@H](NCc4cccc(OC(F)(F)F)c4)C3)nc2c1`: 15 nM and 64 µL/min/mg. The compound `COc1cc(N[C@H]2CCC[C@H](NCc3ccsc3)C2)nc2ccc(OC(C)C)cc12` gave an IC50 in series [1] of 231 nM. For the compound `COc1ccc2nc(NCCCCNCc3ccsc3)cc(C)c2c1`, the IC50 in [1] is greater than 33000 nM. Still for that read-out and setting: the figure for `COc1ccc2nc(N[C@@H]3CCC[C@@H](NCc4ccsc4)C3)cc(C)c2c1` is 411 nM; for `COc1ccc(Br)c(CN[C@H]2CCC[C@H](Nc3cc(C)c4ccc(OC)cc4n3)C2)c1` it is 28 nM. The same measure, in the same setting: the value for `COc1ccc2c(C)cc(N[C@H]3CCC[C@H](NCc4cccc5nsnc45)C3)nc2c1` was 10 nM. Consider `COc1ccc2c(C)cc(N[C@H]3CCC[C@H](NCc4ccsc4)C3)nc2c1`, for which the IC50 in series [1] was 0.1 nM; in series [3], 1 nM. Besides, the microsomal CLint in [2] came to 32 µL/min/mg. In turn, `COc1ccc2nc(N[C@H]3CC[C@H](NCc4ccsc4)C3)cc(C)c2c1` showed a concentration for half-maximal inhibition (IC50) in series [1] of 62 nM.

The compound `COc1ccc2nc(N[C@@H]3C[C@@H]4C[C@H]3[C@H](NCc3ccsc3)C4)cc(C)c2c1` came in with a 50% inhibitory concentration (IC50) in [1] of 5010 nM. Compound `COc1ccc2nc(N[C@H]3C[C@H]4C[C@@H]3[C@@H](NCc3ccsc3)C4)cc(C)c2c1` showed an IC50 in [1] of 369 nM.

The compound `COc1ccc2c(C)cc(N[C@H]3CCC[C@H](NCc4cncc5ccccc45)C3)nc2c1` came in with an IC50 in [1] of 22 nM. The microsomal CLint in [2] was 500 µL/min/mg. Consider `COc1ccc2nc(N[C@H]3CCC[C@H](NCc4ccsc4)C3)ccc2c1`, for which the IC50 is 57 nM in series [1] and 25 nM in series [3]. In addition, in series [2], the microsomal CLint turned out to be 295 µL/min/mg. Regarding `Clc1ccc2nc(N[C@H]3CCC[C@H](NCc4ccsc4)C3)ccc2c1`, the IC50 in [1] is 571 nM. Same read-out and setting: the value for `CN(C)c1ccc2nc(N[C@H]3CCC[C@H](NCc4ccsc4)C3)ccc2c1` was 847 nM; that for `COc1ccc2nc(NCCCNC(=O)c3ccsc3)cc(C)c2c1` was 106 nM; that for `COc1ccc2nc(N[C@H]3CC[C@H](N(C)Cc4ccsc4)C3)cc(C)c2c1` was 119 nM.

`COc1ccc2nc(N(C)[C@H]3CC[C@H](NCc4ccsc4)C3)cc(C)c2c1` had an IC50 in series [1] of 2300 nM. As for `CC(=O)N(C)c1ccc2nc(N[C@H]3CCC[C@H](NCc4ccsc4)C3)ccc2c1`, the IC50 in series [1] came to 2520 nM. On the same count and under the same terms, the figure for `COc1ccc2nc(N3CCC(NCc4ccsc4)CC3)cc(C)c2c1` is 2130 nM. `c1ccc2nc(N[C@H]3CCC[C@H](NCc4ccsc4)C3)ccc2c1`: the IC50 is 68 nM in [1] and 234 nM in series [3]. On to `COc1ccc2c(C)cc(N[C@H]3CC[C@H](NCc4cn(C)c5ccccc45)C3)nc2c1`, for which the IC50 in series [1] was found to be 9 nM; in [3] it was 85 nM. The microsomal CLint in series [2] is less than 12 µL/min/mg. `COc1ccc2c(C)cc(N[C@H]3CC[C@H](NCc4cn(C)c5cccnc45)C3)nc2c1`: in [4], the Kp was 0.13. The compound also gave a half-life in series [5] of 8.6 h. Besides, the Cmax in series [6] worked out at 3.78 µM; in the series on Mus musculus, 0.5 µmol/kg. Besides, the figures for the IC50 in [1] and in series [3] were 29 nM and 83 nM, respectively. In [7], this compound displayed a fraction unbound of 0.065. The Tmax in series [8] came to 0.26 h; in [10], 24 h. Further, in series [9], the Vd was found to be 7.6 L/kg. For the same compound, the microsomal CLint in [2] turned out to be 20 µL/min/mg. The compound further gave a bioavailability in series [11] of 100%. In series [12], the clearance stood at 15 mL/min/kg. `COc1ccc2c(C)cc(N[C@H]3CC[C@H](NCc4cn(C)c5c4ccc4cccnc45)C3)nc2c1` displayed an IC50 in [1] of 71 nM. Also, the microsomal CLint in [2] stood at 12 µL/min/mg.

`COc1ccc2c(C)cc(N[C@H]3CC[C@H](NCc4cn(C)c5ccc(C#N)cc45)C3)nc2c1` gave an IC50 in series [1] of 39 nM. Moreover, the microsomal CLint in series [2] was less than 12 µL/min/mg. Compound `COc1ccc2nc(N[C@H]3C[C@@H]4C[C@H]3[C@@H](NCc3ccsc3)C4)cc(C)c2c1` returned an IC50 in [1] of 35 nM.

In turn, `COc1ccc2c(C)cc(N[C@H]3CCC[C@H](NCc4ccc(S(C)(=O)=O)cc4Cl)C3)nc2c1` came in with an IC50 in [1] of 50 nM. The microsomal CLint in series [2] is 269 µL/min/mg. For `CN(C)c1cc(N[C@H]2CCC[C@H](NCc3ccsc3)C2)nc2ccccc12`, the IC50 in [1] was 29 nM; in series [3], 97 nM. The microsomal CLint in series [2] came to 30 µL/min/mg. As for `N#Cc1cc(N[C@H]2CCC[C@H](NCc3ccsc3)C2)nc2ccccc12`, in series [1], the IC50 amounted to 9920 nM. Regarding `COc1cc(N[C@H]2CCC[C@H](NCc3ccsc3)C2)nc2ccc(F)cc12`, the IC50 in series [3] is 90 nM. Consider `Clc1cccc2ccc(N[C@H]3CCC[C@H](NCc4ccsc4)C3)nc12`, for which, in [1], the IC50 turned out to be 5100 nM. In addition, the microsomal CLint in series [2] was 15 µL/min/mg. As for `COc1ccc2c(C)cc(N[C@H]3CC[C@H](NCc4cn(C)c5ccc(OC(F)F)cc45)C3)nc2c1`, the IC50 in series [1] is 5 nM; in [3], 35 nM. In [2], the microsomal CLint is 12 µL/min/mg. In series [1], `COc1ccc2c(C)cc(N[C@H]3CC[C@H](NCc4cn(C)c5ccc(OCc6ccccc6)cc45)C3)nc2c1` yielded an IC50 of 80 nM. Further, the intrinsic clearance (microsomal CLint) in series [2] is 26 µL/min/mg. `COc1ccc2nc(NCC3CCCN(Cc4ccsc4)C3)cc(C)c2c1` (stereo not drawn): in [1], the IC50 was 2990 nM. As for `Cc1cc(N[C@H]2CCC[C@H](NCc3ccsc3)C2)nc2ccccc12`, the IC50 in [1] came to 7 nM; in series [3], 59 nM. Also, the microsomal CLint in series [2] amounted to 60 µL/min/mg. Compound `FC(F)(F)c1cc(N[C@H]2CCC[C@H](NCc3ccsc3)C2)nc2ccccc12` had an IC50 in [1] of 4800 nM. Moreover, in series [2], the microsomal CLint is 68 µL/min/mg. As to `COc1ccc2nc(NCCCNCc3ccsc3)cc(C)c2c1`, the IC50 in series [1] was 15 nM. Take `COc1ccc2c(C)cc(N[C@H]3CCC[C@H](NCc4cn(C)c5ccc(Br)cc45)C3)nc2c1`: the IC50 in series [1] is 61 nM. Also, the microsomal CLint in series [2] came to 41 µL/min/mg.

The compound `COc1ccc2nc(N[C@H]3CCC[C@H](NCc4ccsc4)C3)cc(C)c2c1` registered an IC50 in [1] of 3 nM. Same read-out and setting: the figure for `COc1ccc2c(C)cc(N[C@H]3CCC[C@H](NCc4cn(C)nc4C)C3)nc2c1` is 178 nM.

A word on the IC50: it is the concentration that inhibits the measured activity by half. Usually microsomal CLint stands for the rate of metabolic loss divided by the concentration. Usually half-life stands for the time needed for the level to fall by half in the phase considered. Higher therefore signals slow decline. Usually fraction unbound stands for the share of the substance not bound to proteins or other matrix. A higher fraction unbound goes with weak binding. For orientation: Tmax means the time from dosing to the highest level. For orientation: bioavailability means dose-corrected exposure relative to a reference, in per cent. Low values mean poor availability, high ones good availability.
